Data: patent US8980830B2 (priority 2007, dated 2015)
Several values for one entry are separate records, joined by “and”; a condition that tells them apart may be missing. Equal entries are not always repeated. Where two headings read alike, the source gives them in different places. Each block holds one compound with its values, some of them ahead of it. Bridge positions count the residues as written; N and C are the ends. Square brackets hold non-standard residues; d marks the D form. Side chains are listed from the residue outwards. Ends that are not written are not given here. Peptide text beside a SMILES is read from it. PhLac = O=C(O)[C@@H](O)Cc1ccccc1

Columns and labels:
GLP-1 Receptor = GLP-1 Receptor (Homo sapiens, UniProt P43220); experiment: Functional assay, cAMP induction (luciferase reporter, HEK293) at GLP-1 receptor; type: cell-based
Glucagon Receptor [1] = molecular target: T1, Glucagon Receptor (Homo sapiens, UniProt P47871); experiment: cAMP inhibition: antagonism of glucagon-induced cAMP at glucagon receptor; type: cell-based; parameters: expressed in transfected cells; host or cells: HEK293
[2] = Glucagon solubility assay; conditions: Table 10
Glucagon Receptor [3] = molecular target: T1, Glucagon Receptor; experiment: Glucagon receptor binding assay (scintillation proximity competition binding)
[4] = GLP-1 agonism EC50 (nM), Table 17
[5] = Glucagon antagonism IC50 (nM, inhibit 0.2-0.8 nM glucagon), Table 17
[6] = Table 7, average ±STD, at least three experiments
[7] = read-out: IC50 (nM) (Receptor binding), Table 12

T1 sequence (P47871 26-477): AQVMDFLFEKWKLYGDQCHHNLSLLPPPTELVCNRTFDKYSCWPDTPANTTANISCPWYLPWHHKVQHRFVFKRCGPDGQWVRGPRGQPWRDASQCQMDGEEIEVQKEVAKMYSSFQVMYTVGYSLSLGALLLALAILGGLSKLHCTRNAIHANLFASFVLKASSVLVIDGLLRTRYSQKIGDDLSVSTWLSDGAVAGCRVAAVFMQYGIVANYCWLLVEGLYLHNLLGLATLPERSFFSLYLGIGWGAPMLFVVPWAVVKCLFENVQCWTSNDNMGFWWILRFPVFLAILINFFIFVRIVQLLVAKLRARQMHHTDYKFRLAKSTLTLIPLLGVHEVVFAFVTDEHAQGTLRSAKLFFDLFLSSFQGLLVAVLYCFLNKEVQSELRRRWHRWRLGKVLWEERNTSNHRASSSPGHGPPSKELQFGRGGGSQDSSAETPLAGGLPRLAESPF
Sequence of GLP-1 Receptor (P43220 24-463): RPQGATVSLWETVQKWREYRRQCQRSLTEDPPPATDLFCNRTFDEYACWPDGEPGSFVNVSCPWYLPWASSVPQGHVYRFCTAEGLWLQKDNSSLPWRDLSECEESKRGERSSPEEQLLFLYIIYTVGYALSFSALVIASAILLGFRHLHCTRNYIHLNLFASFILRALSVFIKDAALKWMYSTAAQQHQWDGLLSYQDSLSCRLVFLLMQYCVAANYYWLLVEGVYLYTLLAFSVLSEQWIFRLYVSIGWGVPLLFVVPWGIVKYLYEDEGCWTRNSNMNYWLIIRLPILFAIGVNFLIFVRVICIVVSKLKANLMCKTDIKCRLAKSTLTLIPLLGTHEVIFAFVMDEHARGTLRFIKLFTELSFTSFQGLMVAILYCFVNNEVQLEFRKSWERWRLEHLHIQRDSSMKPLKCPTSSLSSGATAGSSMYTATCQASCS

Compound: CSCC[C@H](NC(=O)[C@H](CC(C)C)NC(=O)[C@H](Cc1c[nH]c2ccccc12)NC(=O)[C@H](CCC(N)=O)NC(=O)[C@@H](NC(=O)[C@H](Cc1ccccc1)NC(=O)[C@H](CC(=O)O)NC(=O)[C@H](CCC(N)=O)NC(=O)[C@H](C)NC(=O)[C@H](CCCNC(=N)N)NC(=O)[C@H](CCCNC(=N)N)NC(=O)[C@H](CCC(=O)O)NC(=O)[C@H](CC(=O)O)NC(=O)[C@H](CC(C)C)NC(=O)[C@H](Cc1ccc(O)cc1)NC(=O)[C@H](CCCCN)NC(=O)[C@H](CO)NC(=O)[C@H](Cc1ccc(O)cc1)NC(=O)[C@H](CCC(=O)O)NC(=O)[C@H](CO)NC(=O)[C@@H](NC(=O)[C@@H](O)Cc1ccccc1)[C@@H](C)O)C(C)C)C(=O)N[C@@H](CC(N)=O)C(=O)N[C@H](C(=O)NCC(=O)N1CCC[C@H]1C(=O)N[C@@H](CO)C(=O)N[C@@H](CO)C(=O)NCC(=O)N[C@@H](C)C(=O)N1CCC[C@H]1C(=O)N1CCC[C@H]1C(=O)N1CCC[C@H]1C(=O)N[C@@H](CO)C(N)=O)[C@@H](C)O [[PLA6, E9, E16]G(6-39)] (H-[PhLac]TSEYSKYLDERRAQDFVQWLMNTGPSSGAPPPS-NH2)
EC50 (GLP-1 Receptor; GLP-1 agonism EC50 (nM), Table 16): 1760 nM
IC50 (Glucagon Receptor [1]; Glucagon antagonism IC50 (nM, inhibit 0.2-0.8 nM glucagon), Table 16, combined results of three assays): 58.1 nM

Compound: FTSEYSKYLDSRRAQDFVQWLMNT-NH2 [[Glu^9]Glucagon(aa6-29)-NH2]
IC50 (Glucagon Receptor [3]; [6]): 36.4 ± 5.23 nM
IC50 (Glucagon Receptor [3]; read-out: IC50 (nM) receptor binding, Table 9): 36.4 ± 5.23 nM
cAMP pA2 (Glucagon Receptor [1]): 7.16 ± 0.27

Compound: [C^8(20kDaPEG), E^9]Glucagon(aa6-29)-NH2 (FTC(PEG 20 kDa)EYSKYLDSRRAQDFVQWLMNT-NH2)
IC50 (Glucagon Receptor [3]; [7]): > 1000 nM
IC50 (nM) (cAMP, inhibit 0.2 mM Glucagon) (Glucagon Receptor [1]; Table 12): no antagonism

Compound: [E^9, C^11(20kDaPEG)]Glucagon(aa6-29)-NH2 (FTSEYC(PEG 20 kDa)KYLDSRRAQDFVQWLMNT-NH2)
IC50 (Glucagon Receptor [3]; [7]): > 1000 nM
IC50 (nM) (cAMP, inhibit 0.2 mM Glucagon) (Glucagon Receptor [1]; Table 12): no antagonism

Compound: [E^9, C^24 (20kDaPEG)]Glucagon(aa6-29)-NH2 (FTSEYSKYLDSRRAQDFVC(PEG 20 kDa)WLMNT-NH2)
IC50 (Glucagon Receptor [3]; [7]): > 1000 nM
IC50 (Glucagon Receptor [3]; read-out: IC50 (nM) (Receptor binding), Table 12, listed as [Phe^6, E^9, C^24(20kDaPEG)]Glucagon(aa6-29)-NH2): > 10000 nM
IC50 (nM) (cAMP, inhibit 0.2 mM Glucagon) (Glucagon Receptor [1]; Table 12): no antagonism

Compound: [K^5(CH2CH2S-20kDaPEG), E^9]Glucagon(aa5-29)-NH2 (K([CH2CH2S-PEG 20 kDa])FTSEYSKYLDSRRAQDFVQWLMNT-NH2)
IC50 (Glucagon Receptor [3]; [7]): > 10000 nM
IC50 (nM) (cAMP, inhibit 0.2 mM Glucagon) (Glucagon Receptor [1]; Table 12): no antagonism

Compound: [PLA6, E16K20(Lactam), C24(20 kDa), D28]G(6-29) ([PhLac]TSDYSKYLDERRAKDFVC(PEG 20 kDa)WLMDT-NH2; lactam 11-15)
EC50 (GLP-1 Receptor; read-out: GLP-1 agonism EC50, Table 21): 450 to 1840 nM
IC50 (Glucagon Receptor [1]; read-out: Glucagon antagonism IC50(nM) (inhibit 0.2-0.8 nM glucagon)): 374 to 1460 nM

Next, values leading:

EC50 (GLP-1 Receptor; GLP-1 EC50 (nM), Table 14): 5 to 25 nM
EC50 (GLP-1 Receptor; [4]): 6.9 nM and 4.2 nM
EC50 (GLP-1 Receptor; GLP-1 agonism EC50 (nM), Table 19): 10.6 ± 0.97 nM
EC50 (GLP-1 Receptor; GLP-1 agonism EC50 (nM), Table 21): 5 to 28 nM
IC50 (Glucagon Receptor [1]; Glucagon IC50 (nM), Table 14): 10 to 30 nM
IC50 (Glucagon Receptor [1]; Glucagon antagonism IC50(nM) (inhibit 0.2-0.8 nM glucagon), Table 21): 5 to 27 nM
IC50 (Glucagon Receptor [1]; Glucagon antagonism IC50 (nM, inhibit 0.4 nM glucagon), Table 22): 5 to 27 nM
IC50 (Glucagon Receptor [1]; Glucagon antagonism IC50 (nM, inhibit 0.8 nM glucagon), Table 19): 13.7 ± 1.2 nM
IC50 (Glucagon Receptor [1]; [5]): 11.7 ± 2.8 nM
IC50 (Glucagon Receptor [1]; Glucagon antagonism IC50 (nM, inhibit 0.2-0.8 nM glucagon), Table 18): 5.5 nM
Compound: CSCC[C@H](NC(=O)[C@H](CC(C)C)NC(=O)[C@H](Cc1c[nH]c2ccccc12)NC(=O)[C@H](CCC(N)=O)NC(=O)[C@@H](NC(=O)[C@H](Cc1ccccc1)NC(=O)[C@H](CC(=O)O)NC(=O)[C@@H]1CCCCNC(=O)CC[C@H](NC(=O)[C@H](CC(=O)O)NC(=O)[C@H](CC(C)C)NC(=O)[C@H](Cc2ccc(O)cc2)NC(=O)[C@H](CCCCN)NC(=O)[C@H](CO)NC(=O)[C@H](Cc2ccc(O)cc2)NC(=O)[C@H](CC(=O)O)NC(=O)[C@H](CO)NC(=O)[C@@H](NC(=O)[C@@H](O)Cc2ccccc2)[C@@H](C)O)C(=O)N[C@@H](CCCNC(=N)N)C(=O)N[C@@H](CCCNC(=N)N)C(=O)N[C@@H](C)C(=O)N1)C(C)C)C(=O)N[C@@H](CC(=O)O)C(=O)N[C@H](C(N)=O)[C@@H](C)O [[PLA6, D9, E16K20(lactam), D28]G(6-29)] (H-[PhLac]TSDYSKYLDERRAKDFVQWLMDT-NH2; lactam 11-15)

EC50 (GLP-1 Receptor; [4]): 38.5 ± 7.6 nM
IC50 (Glucagon Receptor [1]; [5]): 58.3 ± 3.3 nM
Compound: CSCC[C@H](NC(=O)[C@H](CC(C)C)NC(=O)[C@H](Cc1c[nH]c2ccccc12)NC(=O)[C@H](CCC(N)=O)NC(=O)[C@@H](NC(=O)[C@H](Cc1ccccc1)NC(=O)[C@H](CC(=O)O)NC(=O)[C@H](CCC(N)=O)NC(=O)[C@H](C)NC(=O)[C@H](CCCNC(=N)N)NC(=O)[C@H](CCCNC(=N)N)NC(=O)[C@@H]1CCC(=O)NCCCC[C@H](NC(=O)[C@H](CO)NC(=O)[C@H](Cc2ccc(O)cc2)NC(=O)[C@H](CC(=O)O)NC(=O)[C@H](CO)NC(=O)[C@@H](NC(=O)[C@@H](O)Cc2ccccc2)[C@@H](C)O)C(=O)N[C@@H](Cc2ccc(O)cc2)C(=O)N[C@@H](CC(C)C)C(=O)N[C@@H](CC(=O)O)C(=O)N1)C(C)C)C(=O)N[C@@H](CC(=O)O)C(=O)N[C@H](C(N)=O)[C@@H](C)O [[PLA6, D9, K12E16(Lactam), D28]G(6-29)] (H-[PhLac]TSDYSKYLDERRAQDFVQWLMDT-NH2; lactam 7-11)

Solubility (%, pH 6-8) [2]: 100%
Compound: CSCC[C@H](NC(=O)[C@H](CC(C)C)NC(=O)[C@H](Cc1c[nH]c2ccccc12)NC(=O)[C@H](CCC(N)=O)NC(=O)[C@@H](NC(=O)[C@H](Cc1ccccc1)NC(=O)[C@H](CC(=O)O)NC(=O)[C@H](CCC(N)=O)NC(=O)[C@H](C)NC(=O)[C@H](CCCNC(=N)N)NC(=O)[C@H](CCCNC(=N)N)NC(=O)[C@H](CO)NC(=O)[C@H](CC(=O)O)NC(=O)[C@H](CC(C)C)NC(=O)[C@H](Cc1ccc(O)cc1)NC(=O)[C@H](CCCCN)NC(=O)[C@H](CO)NC(=O)[C@H](Cc1ccc(O)cc1)NC(=O)[C@H](CC(=O)O)NC(=O)[C@H](CO)NC(=O)[C@@H](NC(=O)[C@@H](O)Cc1ccccc1)[C@@H](C)O)C(C)C)C(=O)N[C@@H](CC(=O)O)C(=O)N[C@H](C(N)=O)[C@@H](C)O [[PLA^6, D^9, D^28] Glucagon(aa6-29)-NH2]

Solubility (%, pH 6-8) [2]: 96%
Compound: CSCC[C@H](NC(=O)[C@H](CC(C)C)NC(=O)[C@H](Cc1c[nH]c2ccccc12)NC(=O)[C@H](CCC(N)=O)NC(=O)[C@@H](NC(=O)[C@H](Cc1ccccc1)NC(=O)[C@H](CC(=O)O)NC(=O)[C@H](CCC(N)=O)NC(=O)[C@H](C)NC(=O)[C@H](CCCNC(=N)N)NC(=O)[C@H](CCCNC(=N)N)NC(=O)[C@H](CO)NC(=O)[C@H](CC(=O)O)NC(=O)[C@H](CC(C)C)NC(=O)[C@H](Cc1ccc(O)cc1)NC(=O)[C@H](CCCCN)NC(=O)[C@H](CO)NC(=O)[C@H](Cc1ccc(O)cc1)NC(=O)[C@H](CC(=O)O)NC(=O)[C@H](CO)NC(=O)[C@@H](NC(=O)[C@@H](O)Cc1ccccc1)[C@@H](C)O)C(C)C)C(=O)N[C@@H](CC(N)=O)C(=O)N[C@H](C(=O)O)[C@@H](C)O [[PLA^6, D^9]Glucagon(aa6-29)-COOH] (H-[PhLac]TSDYSKYLDSRRAQDFVQWLMNT-OH)

Solubility (%, pH 6-8) [2]: 11%
Compound: CSCC[C@H](NC(=O)[C@H](CC(C)C)NC(=O)[C@H](Cc1c[nH]c2ccccc12)NC(=O)[C@H](CCC(N)=O)NC(=O)[C@@H](NC(=O)[C@H](Cc1ccccc1)NC(=O)[C@H](CC(=O)O)NC(=O)[C@H](CCC(N)=O)NC(=O)[C@H](C)NC(=O)[C@H](CCCNC(=N)N)NC(=O)[C@H](CCCNC(=N)N)NC(=O)[C@H](CO)NC(=O)[C@H](CC(=O)O)NC(=O)[C@H](CC(C)C)NC(=O)[C@H](Cc1ccc(O)cc1)NC(=O)[C@H](CCCCN)NC(=O)[C@H](CO)NC(=O)[C@H](Cc1ccc(O)cc1)NC(=O)[C@H](CC(=O)O)NC(=O)[C@H](CO)NC(=O)[C@@H](NC(=O)[C@@H](O)Cc1ccccc1)[C@@H](C)O)C(C)C)C(=O)N[C@@H](CC(N)=O)C(=O)N[C@H](C(N)=O)[C@@H](C)O [[PLA^6, D^9]Glucagon(aa6-29)-NH2] (H-[PhLac]TSDYSKYLDSRRAQDFVQWLMNT-NH2)

EC50 (GLP-1 Receptor; GLP-1 agonism EC50 (nM), Table 20): 45.7 ± 12.3 nM
IC50 (Glucagon Receptor [1]; Glucagon antagonism IC50 (nM, inhibit 0.8 nM glucagon), Table 24): 20.8 ± 3.09 nM
Compound: CSCC[C@H](NC(=O)[C@H](CC(C)C)NC(=O)[C@H](Cc1c[nH]c2ccccc12)NC(=O)[C@H](CCC(N)=O)NC(=O)[C@@H](NC(=O)[C@H](Cc1ccccc1)NC(=O)[C@H](CC(=O)O)NC(=O)[C@@H]1CCCCNC(=O)CC[C@H](NC(=O)[C@H](CC(=O)O)NC(=O)[C@H](CC(C)C)NC(=O)[C@H](Cc2ccc(O)cc2)NC(=O)[C@H](CCCCN)NC(=O)[C@H](CO)NC(=O)[C@H](Cc2ccc(O)cc2)NC(=O)[C@H](CC(=O)O)NC(=O)[C@H](CO)NC(=O)[C@@H](NC(=O)[C@H](Cc2ccccc2)OC(=O)[C@@H](NC(=O)CNC(=O)[C@H](CCC(N)=O)NC(=O)[C@@H](N)CO)[C@@H](C)O)[C@@H](C)O)C(=O)N[C@@H](CCCNC(=N)N)C(=O)N[C@@H](CCCNC(=N)N)C(=O)N[C@@H](C)C(=O)N1)C(C)C)C(=O)N[C@@H](CC(=O)O)C(=O)N[C@H](C(N)=O)[C@@H](C)O [[S2Q3-O-PLA6, D9, E16K20(Lactam), D28] G(2-29)] (H-SQGT[PhLac]TSDYSKYLDERRAKDFVQWLMDT-NH2; lactam 15-19; N-terminus assumed)

IC50 (Glucagon Receptor [3]; [6]): 136 ± 17.8 nM
IC50 (Glucagon Receptor [3]; read-out: Receptor Binding IC50, Table 4): 136 nM
Compound: GTFTSEYSKYLDSRRAQDFVQWLMNT-NH2 [[Glu^9]Glucagon(aa4-29)-NH2]

IC50 (Glucagon Receptor [3]; [7]): > 10000 nM
IC50 (Glucagon Receptor [1]; read-out: IC50 (nM) (cAMP, inhibit 0.2 mM Glucagon), Table 12, inhibit 0.2 mM Glucagon): 14800 nM
Compound: [d-Cys^5(20kDaPEG), E^9]Glucagon(aa5-29)-NH2 ([dC](PEG 20 kDa)FTSEYSKYLDSRRAQDFVQWLMNT-NH2)
